Assay results as given in EP1374681A1, “Process for identifying fungicidally active compounds” (Bayer CropScience AG, priority 2002, dated 2004).

Assays:
[1] = system: Phytophtora infectans; assay: Test of fungicidal action (fungal growth inhibition vs. untreated control; ED50 and Wirkungsgrad); assay type: cell-based
Procedure: Dazu können z.B. in die Kavitäten von Mikrotiterplatten eine Lösung des zu prüfenden Wirkstoffs pipettiert werden. Nachdem das Lösungsmittel abgedampft war, wird zu jeder Kavität Medium hinzugefügt. Das Medium wird vorher mit einer geeigneten Konzentration von Sporen bzw. Mycel des zu prüfenden Pilzes versetzt. Die resultierenden Konzentrationen des Wirkstoffes betragen z.B. 0,1, 1, 10 und 100 ppm.
Die Platten werden anschließend auf einem Schüttler bei einer Temperatur von 22°C inkubiert, bis in der unbehandelten Kontrolle ein ausreichendes Wachstum feststellbar ist.
Die Auswertung erfolgt dann photometrisch bei einer Wellenlänge von 620 nm. Aus den Messdaten der verschiedenen Konzentrationen kann die Wirkstoffdosis bestimmt werden, die zu einer 50 %igen Hemmung des Pilzwachstums gegenüber der unbehandelten Kontrolle führt (ED50).
Ein anderes Verfahren zur Prüfung der fungiziden Wirkung beruht darauf, die protektive Wirkung der zu testenden Verbindung an einer Pflanze zu testen. Dazu wird die Pflanze mit einer Lösung des zu prüfenden Wirkstoffs besprüht und anschließend mit einer Lösung von Pilzssporen inokuliert und über mehrere Tage hinweg beobachtet. Es kann dann im Vergleich zu einer Pflanze, die nicht vorab mit einer Wirkstofflösung behandelt wurde, festgestellt werden, ob der zu prüfende Wirkstoff den Befall bzw. die Ausbreitung des Pilzes verhindert oder mindert.
Auch hier kann die Wirkstoffkonzentration bestimmt werden, die zu einer 50 %igen Hemmung des Pilzwachstums gegenüber der unbehandelten Kontrolle führt (ED50).
Weiterhin kann als Größe zur Beurteilung einer fungiziden Wirkung der Wirkungsgrad herangezogen werden, wobei 0 % für einen Wirkungsgrad steht, der demjenigen der Kontrolle entspricht, während ein Wirkungsgrad von 100 % bedeutet, daß kein Befall beobachtet wird.
In die Kavitäten von Mikrotiterplatten wurde eine methanolische Lösung des anhand eines erfindungsgemäßen Verfahrens identifizierten Wirkstoffs (Tab. I, Bsp. 2), versetzt mit einem Emulgator, pipettiert. […]

[2] = target: T1, Phosphomannomutase (Saccharomyces cerevisiae, UniProt P07283); assay: Phosphomannomutase inhibition test, coupled fluorescence assay (NADPH) in 384-well MTP; assay type: biochemical; conditions: negative decadic logarithm of the molar IC50 (50 % inhibition of the enzyme)
T1 construct: made in house; host or cells: E. coli BL21 (DE3), plasmid pSec53 (pGEX-4T-1)
T1 sequence (P07283 1-254): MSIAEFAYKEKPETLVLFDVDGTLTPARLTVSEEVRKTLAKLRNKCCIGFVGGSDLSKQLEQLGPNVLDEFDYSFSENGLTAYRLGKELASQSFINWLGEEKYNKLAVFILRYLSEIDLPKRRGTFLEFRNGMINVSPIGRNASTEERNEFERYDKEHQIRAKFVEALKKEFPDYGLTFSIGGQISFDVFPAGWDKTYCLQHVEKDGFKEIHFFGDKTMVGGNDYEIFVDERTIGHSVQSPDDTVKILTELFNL
Procedure: Die Messung kann auch in für HTS- oder UHTS-Assays gängigeren Formaten erfolgen, z.B. in Mikrotiterplatten, in denen z.B. ein Gesamtvolumen von 5 bis 50 µl pro Ansatz bzw. pro Well vorgelegt wird und die einzelnen Komponenten in einer der vorstehend angegebenen Endkonzentrationen vorliegen (vgl. Beispiel 2). Dabei wird die zu testende, potentiell die Aktivität des Enzyms inhibierende oder aktivierende Verbindung (Kandidatenmolekül) z.B. in einer geeigneten Konzentration im oben angegebenen Testpuffer enthaltend D-Mannose-1-phosphat vorgelegt. Dann wird das erfindungsgemäße Polypeptid in oben genanntem Testpuffer, enthaltend NADP^+, Glucose und die für den gekoppelten Assay notwendigen Hilfsenzyme Phosphoglucose Isomerase und Glucose-6-phosphat Dehydrogenase zugegeben und die Reaktion damit gestartet. Der Ansatz wird dann z.B. bis zu 2 oder 3 Stunden bei einer geeigneten Temperatur inkubiert und die Fluoreszenzzunahme bei einer Anregungswellenlänge von 360 nm und einer Emissionswellenlänge von 460 nm gemessen.
Eine weitere Messung erfolgt in einem entsprechenden Ansatz, jedoch ohne Zugabe eines Kandidatenmoleküls und ohne Zugabe eines erfindungsgemäßen Polypeptids (Negativkontrolle). Eine weitere Messung erfolgt wiederum bei Abwesenheit eines Kandidatenmoleküls, jedoch bei Anwesenheit des erfindungsgemäßen Polypeptids (Positivkontrolle). […]

Which ED50 ([1]; Phytophtora infectans, 50 % inhibition of fungal growth vs. untreated control) does the source give for `C[n+]1ccc(/C=C/c2ccc(N(c3ccc(/C=C/c4cc[n+](C)cc4)cc3)c3ccc(N(c4ccc(/C=C/c5cc[n+](C)cc5)cc4)c4ccc(/C=C/c5cc[n+](C)cc5)cc4)cc3)cc2)cc1` [Beispiel 2] here?
Its ED50 is 500 ppm.

What about the WG ([1]; Phytophtora infectans, Wirkungsgrad: 0 % = like control, 100 % = no infestation) of the same molecule?
Its WG is 33%.

And the “fungizide Wirkung” value ([1]; at the application rate given in Tabelle II)?
Its value is “deutlich fungizide Wirkung”.

And the pI50 [2]?
Its pI50 is 4,9.
